{"source": "patent US20150259645A1", "about": "“METHOD FOR INDUCING IL-2-FREE PROLIFERATION OF GAMMA DELTA T CELLS” (INSERM (INSTITUT NATIONAL DE LA SANTÉ ET DE LA RECHERCHE …, priority 2012, published 2015)", "tested_on": "Vγ9Vδ2 T lymphocytes", "assay": "CFSE dilution proliferation assay in PBMC culture, flow cytometry", "type": "cell-based, human", "details": "100 nM BrHPP; six days culture of PBMC; FIG. 1A", "experimental": "Fresh blood samples were collected from healthy donors, and PBMC were prepared on a Ficoll-Paque density gradient (Amersham Biosciences AB, Upssala, Sweden) by centrifugation (800 g, 30 min at room temperature).\nCell cultures were performed in complete medium: RPMI 1640 supplemented by penicillin 100 UI/ml, streptomycin 100 μg/ml, L-glutamin 2 mM, sodium pyruvate 1 mM and 10% FCS.\nPBMC or PBL were labeled with 0.125 μM CFSE (Invitrogen, France) for 8 min at 37° C. and cultured in 96-well plates (3.10^5 cells per well) in 200 μl of complete medium with or without BrHPP [100 nM], IL-33 [0-1000 ng/ml] and with or without rhIL-2 [10 UI/ml] (Sanofi Aventis, France). After six days in culture CFSE dilution was evaluated in γδ T cells (CD3^+ γ9 TCR cells) by flow cytometry.\nThe IL-33 forms used in this example was the natural cleavage product of human IL-33 (IL-33 aa 95-270) and the truncated form of human IL-33 (IL-33 aa 112-270).\nAnti-TCR γ9-APC and anti-CD3-Pacific blue were used to select Vγ9Vδ2 T lymphocytes by flow cytometry.\nWe studied the effect of IL-33 in combination with the specific phosphoantigen, BrHPP, on the proliferation of human Vγ9Vδ2 T lymphocytes. […] After six days in culture, the proliferation of Vγ9Vδ2 T lymphocytes was analyzed by the reduction of the CFSE fluorescence intensity on the Vγ9Vδ2 T lymphocytes gated by flow cytometry.", "data": [{"smiles": "CC(O)(CBr)CCOP(=O)(O)OP(=O)(O)O", "note": "(stereo not shown) [BrHPP]", "values": [{"measurement": "proliferation of Vγ9Vδ2 T lymphocytes (CFSE dilution)", "value": "induces the proliferation"}]}]}
